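Cells were grown in 96-well plates and exposed to each compound for 48 hours at five concentrations; endpoints were interpolated linearly between bracketing concentrations, or set to the highest concentration if not reached. GI50: concentration for 50% inhibition of growth. TGI: total growth inhibition.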
Key:
Assay in all cases: inhibition of tumour cell growth, NCI panel, 48 h
MALME-3M melanoma = system: MALME-3M melanoma
PC-3 prostate = system: PC-3 prostate
CCRF-CEM leukemia = system: CCRF-CEM leukemia
KM12 colon = system: KM12 colon
U251 CNS = system: U251 CNS
SF-539 CNS = system: SF-539 CNS
NCI-H460 lung = system: NCI-H460 lung
HOP-92 NSCLC = system: HOP-92 NSCLC
UACC-62 melanoma = system: UACC-62 melanoma
MDA-MB-435 = system: MDA-MB-435
HCC-2998 colon = system: HCC-2998 colon
UACC-257 melanoma = system: UACC-257 melanoma
HS 578T breast = system: HS 578T breast
NCI-H522 lung = system: NCI-H522 lung
OVCAR-3 ovarian = system: OVCAR-3 ovarian
DU-145 prostate = system: DU-145 prostate
HT29 colon = system: HT29 colon
HCT-15 colon = system: HCT-15 colon
MDA-MB-231 breast = system: MDA-MB-231 breast
OVCAR-4 ovarian = system: OVCAR-4 ovarian
NCI-H226 lung = system: NCI-H226 lung
SK-MEL-2 melanoma = system: SK-MEL-2 melanoma
LOX IMVI melanoma = system: LOX IMVI melanoma
HCT-116 colon = system: HCT-116 colon
ACHN renal = system: ACHN renal
T-47D breast = system: T-47D breast

SMILES: Cn1c2c(c3ccc([N+](=O)[O-])cc3c1=O)C(=O)c1ccccc1-2
- GI50 (MALME-3M melanoma): 70.3 µM
- TGI (MALME-3M melanoma): > 100 µM
- GI50 (PC-3 prostate): > 100 µM
- TGI (PC-3 prostate): > 100 µM
- GI50 (CCRF-CEM leukemia): > 100 µM
- TGI (CCRF-CEM leukemia): > 100 µM
- GI50 (KM12 colon): > 100 µM
- TGI (KM12 colon): > 100 µM
- GI50 (U251 CNS): > 100 µM
- TGI (U251 CNS): > 100 µM
- GI50 (SF-539 CNS): > 100 µM
- TGI (SF-539 CNS): > 100 µM
- GI50 (NCI-H460 lung): > 100 µM
- TGI (NCI-H460 lung): > 100 µM
- GI50 (HOP-92 NSCLC): > 100 µM
- TGI (HOP-92 NSCLC): > 100 µM
- GI50 (UACC-62 melanoma): > 100 µM
- TGI (UACC-62 melanoma): > 100 µM
- GI50 (MDA-MB-435): 47.4 µM
- TGI (MDA-MB-435): > 100 µM
- GI50 (HCC-2998 colon): > 100 µM
- TGI (HCC-2998 colon): > 100 µM
- GI50 (UACC-257 melanoma): > 100 µM
- TGI (UACC-257 melanoma): > 100 µM
- GI50 (HS 578T breast): > 100 µM
- TGI (HS 578T breast): > 100 µM
- GI50 (NCI-H522 lung): > 100 µM
- TGI (NCI-H522 lung): > 100 µM
- GI50 (OVCAR-3 ovarian): 52.6 µM
- TGI (OVCAR-3 ovarian): > 100 µM
- GI50 (DU-145 prostate): > 100 µM
- TGI (DU-145 prostate): > 100 µM
- GI50 (HT29 colon): > 100 µM
- TGI (HT29 colon): > 100 µM
- GI50 (HCT-15 colon): > 100 µM
- TGI (HCT-15 colon): > 100 µM
- GI50 (MDA-MB-231 breast): > 100 µM
- TGI (MDA-MB-231 breast): > 100 µM
- GI50 (OVCAR-4 ovarian): > 100 µM
- TGI (OVCAR-4 ovarian): > 100 µM
- GI50 (NCI-H226 lung): > 100 µM
- TGI (NCI-H226 lung): > 100 µM
- GI50 (SK-MEL-2 melanoma): > 100 µM
- TGI (SK-MEL-2 melanoma): > 100 µM
- GI50 (LOX IMVI melanoma): > 100 µM
- TGI (LOX IMVI melanoma): > 100 µM
- GI50 (HCT-116 colon): > 100 µM
- TGI (HCT-116 colon): > 100 µM
- GI50 (ACHN renal): > 100 µM
- TGI (ACHN renal): > 100 µM
- GI50 (T-47D breast): > 100 µM
- TGI (T-47D breast): > 100 µM

From PubChem BioAssay (NCI)
